The values below come from patent US9464071B2 (priority 2010, dated 2016).

As usually defined, the melting point is the temperature, or range, at which the solid turns liquid.

Values joined by “and” are separate entries in the source; they are usually repeats but may differ in a detail not shown here. Identical values can stand only once. Counter-ions that a name gives are not always drawn.

With `COc1cc(OC)cc(N(CCNC2CC(C)(C)NC(C)(C)C2)c2ccc3ncc(-c4cnn(C)c4)nc3c2)c1`, the melting point worked out at 80 °C.
In turn, `COc1cc(OC)cc(N(CCCNS(=O)(=O)N(C)C)c2ccc3ncc(-c4cnn(C)c4)nc3c2)c1` [Compound 316] gave a melting point of 158.73 °C.
`COc1cc(OC)cc(N(CCN2C[C@H](C)C[C@@H](C)C2)c2ccc3ncc(-c4cnn(C)c4)nc3c2)c1` (as salt: HCl) [Compound 40]: the melting point amounted to 80 °C.
In turn, `COc1cc(F)cc(N(CCN)c2ccc3ncc(-c4cnn(C)c4)nc3c2)c1` [Compound 488] displayed a melting point of 96.65 °C.
`COc1cc(OC)cc(N(CCCn2cc(C)nc2C)c2ccc3ncc(-c4cnn(C)c4)nc3c2)c1` (as salt: HCl) gave a melting point of 157 °C.
Take `COc1cc(OC)cc(N(CCN2C[C@H](C)C[C@H](C)C2)c2ccc3ncc(-c4cnn(C)c4)nc3c2)c1` [Compound 39]: the melting point was found to be 80 °C.
Regarding `COc1cc(OC)cc(N(CCNC(C)C)c2ccc3ncc(-c4cnn(CCC#N)c4)nc3c2)c1` [Compound 642], the melting point is 127 °C.
The same measure for `COc1cc(OC)cc(N(CC#CC2(O)CCN(C(=O)OC(C)(C)C)CC2)c2ccc3ncc(-c4cnn(C)c4)nc3c2)c1` [Compound 914]: 166 °C; for `COc1cc(OC)cc(N(C[C@@H]2C[C@H]2CO)c2ccc3ncc(-c4cnn(C)c4)nc3c2)c1` [Compound 89]: 126.66 °C and 126 °C; for `COc1cc(OC)cc(N(CC2OCCO2)c2ccc3ncc(-c4cnn(C)c4)nc3c2)c1`: 204.29 °C.
In turn, `COc1cc(OC)cc(N(C[C@@H](O)CN2CC[C@H](C#N)C2)c2ccc3ncc(-c4cnn(C)c4)nc3c2)c1` [Compound 526] had a melting point of 234.8 °C.
The molecule `COc1cc(OC)cc(N(CC2CN(Cc3ccccc3)CCN2Cc2ccccc2)c2ccc3ncc(-c4cnn(C)c4)nc3c2)c1` (centres unmarked) came in with a melting point of 148 °C.
With `CCn1cc(-c2cnc3ccc(N(CCCN4CCCC4=O)c4cc(OC)cc(OC)c4)cc3n2)cn1` (as salt: HCl), the melting point was 197 °C.
`COc1cc(C)cc(N(CC2CC2)c2ccc3ncc(-c4cnn(C)c4)nc3c2)c1` [Compound 228] gave a melting point of 132 °C.
In the case of `CNCCN(c1cc(OC)cc(OC)c1)c1ccc2ncc(-c3cnn(CCO)c3)nc2c1`, the melting point was determined as 131.93 °C.
The same measure for `COc1cccc(N(CCNC(C)C)c2ccc3ncc(-c4cnn(C)c4)nc3c2)c1`: 247 °C; for `COc1cc(OCCO)cc(N(CC2CC2)c2ccc3ncc(-c4cnn(CCO)c4)nc3c2)c1` (as salt: HCl) [Compound 131, 2-[4-(7-{(Cyclopropylmethyl)[3-(2-hydroxyethoxy)-5-methoxyphenyl]amino}quinoxalin-2-yl)-1H-pyrazol-1-yl]ethanol]: 183.2 °C; for `COc1cc(OCCO)cc(N(CC2CC2)c2ccc3ncc(-c4cnn(C)c4)nc3c2)c1` [Compound 24]: 80 °C.
As to `COc1cc(OC)cc(N(CC(=O)Nc2cc(C)ccn2)c2ccc3ncc(-c4cnn(C)c4)nc3c2)c1`, the melting point amounted to 212 °C.
`COc1cc(OC)cc(N(CCN2CC[C@H](C#N)C2)c2ccc3ncc(-c4cnn(C)c4)nc3c2)c1` [Compound 133, (3S)-1-(2-{(3,5-Dimethoxyphenyl)[3-(1-methyl-1H-pyrazol-4-yl)quinoxalin-6-yl]amino}ethyl)pyrrolidine-3-carbonitrile] registered a melting point of 126.47 °C.
In the case of `COc1cc(OC)cc(N(CCN2CCC(F)(F)CC2)c2ccc3ncc(-c4cnn(C)c4)nc3c2)c1` [Compound 431], the melting point was 147.77 °C.
As to `COc1cc(OC)cc(N(CCC(=O)N(C)OC)c2ccc3ncc(-c4cnn(C)c4)nc3c2)c1` [Compound 633], the melting point stood at 130 °C.
In turn, `COc1cc(OC)cc(N(CC2CC2)c2ccc3ncc(-c4cnn(C5CCN(S(C)(=O)=O)CC5)c4)nc3c2)c1` registered a melting point of 200 °C.
For `COc1cc(OC)cc(N(CCN2CCN(C(C)=O)CC2)c2ccc3ncc(-c4cnn(C)c4)nc3c2)c1` [Compound 143, N-[2-(4-Acetylpiperazin-1-yl)ethyl]-N-(3,5-dimethoxyphenyl)-3-(1-methyl-1H-pyrazol-4-yl)quinoxalin-6-amine], the melting point was 184.72 °C.
`COc1cc(OC)cc(N(Cc2cc(C)no2)c2ccc3ncc(-c4cnn(CCO)c4)nc3c2)c1` [Compound 23] had a melting point of 134 °C.
For the molecule `COc1cc(OC)cc(N(CC2CCOCC2)c2ccc3ncc(-c4cnn(C)c4)nc3c2)c1` [Compound 356], the melting point is 154.94 °C.
Consider `COc1cc(F)cc(N(CC2CC2)c2ccc3ncc(-c4cnn(C)c4)nc3c2)c1`, for which the melting point is 142 °C.
For `COc1cc(OC)cc(N(CC2CC2)c2ccc3ncc(-c4cnn(CCCN5CCOCC5)c4)nc3c2)c1`, the melting point is 123.16 °C.
In turn, `COc1ccc(N(CC2CC2)c2ccc3ncc(-c4cnn(C)c4)nc3c2)cc1OC` returned a melting point of 190 °C.
Molecule `COc1cc(OC)cc(N(CC#Cc2cccc(N)n2)c2ccc3ncc(-c4cnn(C)c4)nc3c2)c1` returned a melting point of 203 °C.
As to `COc1cc(OC)cc(N(CC(O)CO)c2ccc3ncc(-c4cnn(C)c4)nc3c2)c1` (centres unmarked) [Compound 75], the melting point was 186 °C and 186.76 °C and 187 °C.
`COc1cc(OC)cc(N(CCO)c2ccc3ncc(-c4cnn(C)c4CCCO)nc3c2)c1` gave a melting point of 62 °C.
In the case of `COc1cc(OC)cc(N(C[C@H](O)C(F)(F)F)c2ccc3ncc(-c4cnn(CCCN)c4)nc3c2)c1` (stereo in doubt), the melting point came out at 154 °C.
The molecule `COc1cc(OC)cc(N(CC2CC2)c2ccc3ncc(-c4cnn(CC(=O)NCCO)c4)nc3c2)c1` displayed a melting point of 167.45 °C.
`COc1cc(OC)cc(N(CC2CC2)c2ccc3ncc(-c4cnn(CCCNCCS(C)(=O)=O)c4)nc3c2)c1` [Compound 231] yielded a melting point of 106.81 °C.
Molecule `COc1cc(OC)cc(N(CCN2CCN(C3CCN(C(C)=O)CC3)CC2)c2ccc3ncc(-c4cnn(C)c4)nc3c2)c1` [Compound 583] registered a melting point of 136.49 °C.
The same measure for `COc1cc(OC)cc(N(CCCN2CCCC2=O)c2ccc3ncc(-c4cnn(C)c4)nc3c2)c1` [Compound 132, 1-(3-{(3,5-Dimethoxyphenyl)[3-(1-methyl-1H-pyrazol-4-yl)quinoxalin-6-yl]amino}propyl)pyrrolidin-2-one]: 132.47 °C; for `CCOC(=O)Cn1cc(CN(c2cc(OC)cc(OC)c2)c2ccc3ncc(-c4cnn(C)c4)nc3c2)nn1`: 88 °C.
For `COc1cc(OC)cc(N(CC2CC2)c2ccc3ncc(-c4cn[nH]c4)nc3c2)c1`, the melting point is 158 to 160 °C and 159 °C.
The same measure for `COc1cccc(C#CCN(c2cc(OC)cc(OC)c2)c2ccc3ncc(-c4cnn(C)c4)nc3c2)c1`: 85 °C; for `CC(C)Oc1cccc(N(CC2CC2)c2ccc3ncc(-c4cnn(C)c4)nc3c2)c1` [Compound 22]: 109 °C and 108.61 °C.
`COc1cc(OC)cc(N(CC#Cc2nccn2C)c2ccc3ncc(-c4cnn(C)c4)nc3c2)c1`: the melting point is 193.25 °C and 192 °C.
The same measure for `COc1cc(OC)cc(N(CC#Cc2nccs2)c2ccc3ncc(-c4cnn(C)c4)nc3c2)c1`: 167 °C; for `COc1cc(OC)cc(N(Cc2cc3ncccc3n2C)c2ccc3ncc(-c4cnn(C)c4)nc3c2)c1`: 241 °C.
The same measure for `COc1cc(OC)cc(N(c2ccc3ncc(-c4cnn(C)c4)nc3c2)[C@H]2CC[C@H](NC(C)C)CC2)c1`: 107 °C; for `COc1cc(F)cc(N(CCO)c2ccc3ncc(-c4cn[nH]c4)nc3c2)c1`: 80 °C; for `COc1cc(OC)cc(N(CC#Cc2ncccc2OC)c2ccc3ncc(-c4cnn(C(C)C)c4)nc3c2)c1`: 119 °C.
The same measure for `COc1cc(OC)cc(N(CC2CC2)c2ccc3ncc(-c4cnn(CC(C)(C)O)c4)nc3c2)c1`: 159.08 °C and 159 °C; for `COc1cc(OC)cc(N(Cc2ccc(Cl)s2)c2ccc3ncc(-c4cn[nH]c4)nc3c2)c1` [Compound 323]: 166.37 °C.
The molecule `[2H]C([2H])([2H])Oc1cc(OC)cc(N(CCNC(C)C)c2ccc3ncc(-c4cn[nH]c4)nc3c2)c1` [Compound 432] came in with a melting point of 251.77 °C.
The molecule `COc1cc(OC)cc(N(Cc2ccccc2)c2ccc3ncc(-c4cnn(C)c4)nc3c2)c1` displayed a melting point of 133.89 °C.
On to `COc1cc(OC)cc(N(CC2CC2)c2ccc3ncc(-c4cnn(CC(=O)N(C)C)c4)nc3c2)c1` [Compound 212], for which the melting point was 145.81 °C.
As for `COc1cc(OC)cc(N(CC2CC2)c2ccc3ncc(-c4cnn(CCN5CCN(CCO)CC5)c4)nc3c2)c1`, the melting point turned out to be 146.13 °C.
Molecule `COc1cc(OC)cc(N(CCCn2cccn2)c2ccc3ncc(-c4cnn(C)c4)nc3c2)c1` [Compound 448] returned a melting point of 80 °C.
For the molecule `COc1cc(OC)cc(N(CCCNS(C)(=O)=O)c2ccc3ncc(-c4cnn(C)c4)nc3c2)c1` [Compound 48], the melting point was 189 °C and 189.27 °C.
Consider `COc1cc(OC)cc(N(CCCC#N)c2ccc3ncc(-c4cnn(C)c4)nc3c2)c1` [Compound 242], for which the melting point stood at 196.25 °C.
